Papp, efflux ratio and IC50 data for 13 compounds are collected here from patent US11802127B2, “3,4-dihydro-2,7-naphthyridine-1,6(2H,7H)-diones as MEK inhibitors” (Pfizer Inc., priority 2021, dated 2023).

A short description of data set [1]: MDR1 LLC-PK1 and BCRP MDCKII Permeability Assay: permeability coefficient (Papp). Particulars: MDCK, test article 1 μM, 37° C. Format: in vitro ADME. The protocol:
(§1) Both LLC-PK1 and MDR1 transfected LLC-PK1 cells were cultured and plated according to manufacturer's recommendations with the exception that the passage media contained only 2% fetal bovine serum to extend passage time out to seven days.
(§2) BCRP transfected MDCKII canine P-gp knockout cell line was cultured and plated according to manufacturer's recommendations.
(§3) Both positive and negative controls were used to assess functionality of P-gp or BCRP efflux in the assays. Stock solutions for assay controls and the test article were prepared in DMSO for final test concentrations of 10 and 1 μM, respectively. Final organic concentration in the assay was 1%. All dosing solutions contained 10 μM lucifer yellow to monitor LLC-PK1 or MDCKII cell monolayer integrity.
(§4) For the apical to basolateral determination (A to B), 75 μL of the test article in transport buffer were added to the apical side of the individual transwells and 250 μL of basolateral media, without compound or lucifer yellow, were added to each well. For the basolateral to apical determination (B to A), 250 μL of test article in transport buffer were added to each well and 75 μL transport buffer, without compound or lucifer yellow, were added to each transwell. All tests were performed in triplicate, and each compound was tested for both apical to basolateral and basolateral to apical transport. The plates were incubated for 2 hours on a Lab-Line Instruments Titer Orbital Shaker (VWR, West Chester, PA) at 50 rpm and 37° C. with 5% CO2. All culture plates were removed from the incubator and 50 μL of media were removed from the apical and basolateral portion of each well and added to 150 μL of 1 μM labetalol in 2:1 acetonitrile (acetonitrile): H2O, v/v.
(§5) The plates were read using a Molecular Devices (Sunnyvale, CA) Gemini Fluorometer to evaluate the lucifer yellow concentrations at excitation/emission wavelengths of 425/535 nm. These values were accepted when found to be below 2% for apical to basolateral and 5% basolateral to apical flux across the MDR1-transfected LLC-PK1 or BCRP-transfected MDCKII cell monolayers. The plates were sealed and the contents of each well analyzed by LC-MS/MS. The compound concentrations were determined from the ratio of the peak areas of the compound to the internal standard (labetalol) in comparison to the dosing solution.
(§6) The LC-MS/MS system was comprised of an HTS-PAL autosampler (Leap Technologies, Carrboro, NC), an HP1200 HPLC (Agilent, Palo Alto, CA), and a MDS Sciex 4000 Q Trap system (Applied Biosystems, Foster City, CA). […] The total run time, including re-equilibration, for a single injection was 1.2 minutes. Mass spectrometric detection of the analytes was accomplished using the ion spray positive mode. Analyte responses were measured by multiple reaction monitoring (MRM) of transitions unique to each compound (the protonated precursor ion and selected product ions for each test article and m/z 329 to m/z 162 for labetalol, the internal standard).

The target of data set [2] is T1, BCRP (hBCRP) (Homo sapiens, UniProt Q9UNQ0).
T1 construct: expressed in transfected cells; host or cells: MDCKII (canine kidney) cells, canine P-gp knockout, transfected with BCRP
T1 sequence (Q9UNQ0 1-655): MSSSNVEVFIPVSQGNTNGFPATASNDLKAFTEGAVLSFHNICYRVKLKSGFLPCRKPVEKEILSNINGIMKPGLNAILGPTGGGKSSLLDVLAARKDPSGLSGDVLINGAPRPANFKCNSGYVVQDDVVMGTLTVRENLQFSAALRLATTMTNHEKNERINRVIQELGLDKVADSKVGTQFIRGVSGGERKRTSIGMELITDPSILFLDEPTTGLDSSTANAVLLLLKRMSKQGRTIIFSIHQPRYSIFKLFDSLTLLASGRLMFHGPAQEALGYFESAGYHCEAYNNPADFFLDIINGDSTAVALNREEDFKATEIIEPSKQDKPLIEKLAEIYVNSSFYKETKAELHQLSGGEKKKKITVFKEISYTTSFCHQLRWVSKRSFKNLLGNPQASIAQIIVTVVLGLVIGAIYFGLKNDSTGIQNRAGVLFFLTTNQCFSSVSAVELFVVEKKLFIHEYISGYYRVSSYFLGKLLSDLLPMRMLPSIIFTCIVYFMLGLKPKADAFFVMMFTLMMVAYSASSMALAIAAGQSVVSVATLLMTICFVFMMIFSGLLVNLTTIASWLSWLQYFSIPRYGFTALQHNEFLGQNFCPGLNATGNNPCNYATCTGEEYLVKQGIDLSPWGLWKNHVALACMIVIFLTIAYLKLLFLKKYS
As to the kind of experiment: Efflux ratio in BCRP transfected MDCKII canine P-gp knockout cells. Format: in vitro ADME. Particulars: Papp(B−A)/Papp(A−B), read-out: Efflux ratio MDCKII-hBCRP knock-in,canine pg-P KO. The protocol:
as §2, §3, §4, §5, §6
(§7) An efflux ratio is calculated from the mean apical to basolateral (A−B) Papp data and basolateral to apical (B−A) Papp data: Efflux ratio=Papp(B−A)/Papp(A−B)

The target of data set [3] is T2, P-gp (MDR1) (Homo sapiens, UniProt P08183).
T2 construct: expressed in transfected cells; host or cells: LLC-PK1 (porcine kidney) cells transfected with MDR1
T2 sequence (P08183 whole entry): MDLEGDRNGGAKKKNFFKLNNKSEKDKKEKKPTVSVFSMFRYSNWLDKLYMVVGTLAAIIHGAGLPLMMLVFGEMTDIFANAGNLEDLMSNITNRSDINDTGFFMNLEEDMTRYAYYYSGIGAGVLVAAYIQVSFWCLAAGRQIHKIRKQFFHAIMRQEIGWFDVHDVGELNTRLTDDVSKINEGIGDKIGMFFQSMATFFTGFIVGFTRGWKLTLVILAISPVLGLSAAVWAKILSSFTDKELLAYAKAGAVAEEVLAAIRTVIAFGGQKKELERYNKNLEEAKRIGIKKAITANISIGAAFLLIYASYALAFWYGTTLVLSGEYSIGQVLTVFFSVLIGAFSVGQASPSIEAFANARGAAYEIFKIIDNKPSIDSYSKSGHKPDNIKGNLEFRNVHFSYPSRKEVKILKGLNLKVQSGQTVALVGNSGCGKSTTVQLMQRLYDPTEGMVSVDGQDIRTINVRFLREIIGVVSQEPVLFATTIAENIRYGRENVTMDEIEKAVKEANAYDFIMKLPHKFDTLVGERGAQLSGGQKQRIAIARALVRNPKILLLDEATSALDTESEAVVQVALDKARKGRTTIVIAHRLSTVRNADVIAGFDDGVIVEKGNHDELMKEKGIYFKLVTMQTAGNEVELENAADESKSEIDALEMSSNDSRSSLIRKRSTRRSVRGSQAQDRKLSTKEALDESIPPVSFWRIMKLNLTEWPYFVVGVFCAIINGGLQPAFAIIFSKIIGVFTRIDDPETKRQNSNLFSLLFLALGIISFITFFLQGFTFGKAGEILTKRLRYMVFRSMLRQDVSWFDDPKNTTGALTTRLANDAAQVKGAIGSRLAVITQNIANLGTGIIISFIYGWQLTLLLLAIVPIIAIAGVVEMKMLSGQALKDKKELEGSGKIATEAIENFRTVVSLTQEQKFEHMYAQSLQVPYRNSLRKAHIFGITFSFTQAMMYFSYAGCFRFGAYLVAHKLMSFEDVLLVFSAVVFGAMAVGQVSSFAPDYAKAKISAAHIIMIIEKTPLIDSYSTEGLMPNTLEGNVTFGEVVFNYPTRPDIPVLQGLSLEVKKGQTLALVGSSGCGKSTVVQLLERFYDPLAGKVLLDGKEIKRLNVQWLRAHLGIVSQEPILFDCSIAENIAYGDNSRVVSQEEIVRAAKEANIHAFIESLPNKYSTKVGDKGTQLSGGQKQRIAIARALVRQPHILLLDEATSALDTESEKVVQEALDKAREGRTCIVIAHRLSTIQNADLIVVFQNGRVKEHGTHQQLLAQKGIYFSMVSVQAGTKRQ
As to the kind of experiment: Efflux ratio in MDR1 transfected LLC-PK1 cells. Particulars: pig, Papp(B−A)/Papp(A−B). Format: in vitro ADME. The protocol:
as §1, §3, §4, §5, §6, §7

Data set [4] has as its system ERK1/2(Thr202/Tyr204) phosphorylation (MEK-dependent) in A375 cells. As to the kind of experiment: Cellular Phospho-p44/42 MAPK (Erk1/2) (Thr202/Tyr204) Assay. Format: cell-based. Particulars: Homo sapiens, A-375, 1-hour incubation, pERK1/2 (Thr202/Tyr204) In-Cell Western normalized to GAPDH. The protocol: Inhibition of ERK1/2(Thr202/Tyr204) phosphorylation was determined by the following cellular assay, which comprises incubating cells with a compound for 1 hour and quantifying pERK signal by In-Cell Western on fixed cells and normalizing to GAPDH signal. A375 cells were obtained from the ATCC and grown in DMEM supplemented with 10% fetal bovine serum, penicillin/streptomycin, Glutamax®, non-essential amino acids, and sodium pyruvate. Cells were plated in 96-well plates at 30,000 cells/well and allowed to attach overnight at 37° C./5% CO2. Cells were treated with compounds prepared as a 10-point, 1:3 dilution series (range: 20 μM-0.05 nM; maximum concentration varied from 20 μM-1 μM), with a final DMSO concentration of 0.5%. Control wells contained either 0.5% DMSO alone (no inhibition control) or 1 μM of a potent control compound (complete inhibition control). After a 1-hour incubation, cells were fixed in 3.7% formaldehyde in dPBS (Dulbecco's phosphate-buffered saline) at room temperature for 20 minutes. Cells were then washed with dPBS and permeabilized in 100% MeOH at room temperature for 10 minutes. Following permeabilization, cells were washed in dPBS and incubated in LI-COR Blocking Buffer (LI-COR Biosciences, Cat #927-40000) for 1 hour or longer. Plates were then incubated with an antibody specific for the MEK-dependent ERK1/2 phosphorylation sites, threonine 202 and tyrosine 204 (Cell Signaling Technologies; Cat #9101), downstream of MEK in the MAP kinase signal transduction pathway, as well as GAPDH (Millipore; Cat #MAB374). pErk1/2 (Thr202/Tyr204) antibody was diluted in LI-COR blocking buffer containing 0.05% Tween-20 at 1:250; GAPDH was diluted at 1:2,500. The plates were incubated overnight at 4° C. After washing with PBS/0.05% Tween-20, the cells were incubated with fluorescently-labeled secondary antibodies (Anti-rabbit-Alexa Flour680, Invitrogen Cat #A21109; Anti-mouse-IRDye800CW, LI-COR Biosciences Cat #926-32210, both at 1:1000 dilution) for 1 hour. Cells were then washed, as above, and analyzed for fluorescence at both 680 and 800 nm wavelengths using the Odyssey CLx Infrared Imaging System (LI-COR Biosciences). Phosphorylated Erk1/2 (Thr202/Tyr204) signal was normalized to GAPDH signal for each well.

In general, Papp refers to a coefficient for how fast a substance crosses the barrier. High values mean fast passage, low ones slow passage. As a reminder, the IC50 is the concentration that inhibits the measured activity by half. Lower therefore signals higher potency. The compound `Cn1c(Nc2ccc(Br)cc2F)c2c(cc1=O)CCN(C1CC1)C2=O` [Example 1] had a Papp at 2 h, 1 μM in data set [1] of 27.2 ×10⁻⁶ cm/s. For the same compound, the efflux ratio at 2 h, 1 μM in data set [2] is 1.1; in data set [3], 1.4. Also, in data set [4], the IC50 was found to be 562 nM.
Taken in the same sequence, the figures for `CCON1CCc2cc(=O)n(C)c(Nc3ccc(Br)cc3F)c2C1=O` [Example 3, 8-((4-bromo-2-fluorophenyl)amino)-2-ethoxy-7-methyl-3,4-dihydro-2,7-naphthyridine-1,6(2H,7H)-dione] were 46.2 ×10⁻⁶ cm/s, 0.9, 1 and 456 nM.
In the same order, the values of `CSc1ccc(Nc2c3c(cc(=O)n2C)CCN(C2CC2)C3=O)c(F)c1` [Example 4, 2-cyclopropyl-8-((2-fluoro-4-(methylthio)phenyl)amino)-7-methyl-3,4-dihydro-2,7-naphthyridine-1,6(2H,7H)-dione] are 26.1 ×10⁻⁶ cm/s, 1.1, 1.3 and 74 nM.
Take `CC(C)c1ccc(Nc2c3c(cc(=O)n2C)CCN(OCCO)C3=O)c(F)c1` [Example 18, 8-((2-fluoro-4-isopropylphenyl)amino)-2-(2-hydroxyethoxy)-7-methyl-3,4-dihydro-2,7-naphthyrdine-1,6(2H,7H)-dione]: the efflux ratio at 2 h, 1 μM came to 2 in data set [2] and 2.3 in data set [3]. The same compound registered an IC50 in data set [4] of 39 nM.
As to `Cc1c2c(c(Nc3ccc(Br)cc3F)n(C)c1=O)C(=O)NCC2` [Example 47, 8-((4-bromo-2-fluorophenyl)amino)-5,7-dimethyl-3,4-dihydro-2,7-naphthyridine-1,6(2H,7H)-dione], the Papp at 2 h, 1 μM in data set [1] stood at 31.5 ×10⁻⁶ cm/s. Besides, the efflux ratio at 2 h, 1 μM in data set [3] worked out at 1.3. In data set [4], this compound yielded an IC50 of 97 nM.
Consider `CSc1ccc(Nc2c3c(c(C)c(=O)n2C)CCN(OCCO)C3=O)c(F)c1` [Example 61, 8-((2-fluoro-4-(methylthio)phenyl)amino)-2-(2-hydroxyethoxy)-5,7-dimethyl-3,4-dihydro-2,7-naphthyridine-1,6(2H,7H)-dione], for which the Papp at 2 h, 1 μM in data set [1] worked out at 26.9 ×10⁻⁶ cm/s. Also, the efflux ratio at 2 h, 1 μM in data set [3] worked out at 3. The compound further returned an IC50 in data set [4] of 11 nM.
Turning to `Cc1c2c(c(Nc3ccc(OC(F)F)cc3F)n(C)c1=O)C(=O)N(OCCO)CC2` [Example 62, 8-((4-(difluoromethoxy)-2-fluorophenyl)amino)-2-(2-hydroxyethoxy)-5,7-dimethyl-3,4-dihydro-2,7-naphthyridine-1,6(2H,7H)-dione], the Papp at 2 h, 1 μM in data set [1] was 26.1 ×10⁻⁶ cm/s. Moreover, the efflux ratio at 2 h, 1 μM in data set [3] was found to be 5. Also, the IC50 in data set [4] was found to be 17 nM.
With `Cn1c(Nc2ccc(Br)cc2F)c2c(cc1=O)C(c1ccccc1)CNC2=O` (centres unmarked) [Example 64, 8-((4-bromo-2-fluorophenyl)amino)-7-methyl-4-phenyl-3,4-dihydro-2,7-naphthyridine-1,6(2H,7H)-dione], the efflux ratio at 2 h, 1 μM in data set [2] turned out to be 1.5. The same compound registered an IC50 in data set [4] of 2 nM.
`CSc1ccc(Nc2c3c(cc(=O)n2C)C(c2ccccc2)CNC3=O)c(F)c1` (centres unmarked) [Example 65, 8-((2-fluoro-4-(methylthio)phenyl)amino)-7-methyl-4-phenyl-3,4-dihydro-2,7-naphthyridine-1,6(2H,7H)-dione] had a Papp at 2 h, 1 μM in data set [1] of 12.5 ×10⁻⁶ cm/s. For the same compound, the efflux ratio at 2 h, 1 μM in data set [2] was found to be 0.8. The compound further yielded an IC50 in data set [4] of 2 nM.
Compound `CC1CNC(=O)c2c1cc(=O)n(C)c2Nc1ccc(Br)cc1F` (centres unmarked) [Example 66, 8-((4-bromo-2-fluorophenyl)amino)-4,7-dimethyl-3,4-dihydro-2,7-naphthyrdine-1,6(2H,7H)-dione] returned a Papp at 2 h, 1 μM in data set [1] of 24.9 ×10⁻⁶ cm/s. Also, in data set [2], the efflux ratio at 2 h, 1 μM is 1. The IC50 in data set [4] turned out to be 27 nM.
Taken in the same sequence, the figures for `CSc1ccc(Nc2c3c(cc(=O)n2C)C(C)CNC3=O)c(F)c1` (centres unmarked) [Example 67, 8-((2-fluoro-4-(methylthio)phenyl)amino)-4,7-dimethyl-3,4-dihydro-2,7-naphthyrdine-1,6(2H,7H)-dione] were 28.3 ×10⁻⁶ cm/s, 1.1 and 8 nM.
In turn, `CC1CN(OCCO)C(=O)c2c1cc(=O)n(C)c2Nc1ccc(Br)cc1F` (centres unmarked) [Example 68, 8-((4-bromo-2-fluorophenyl)amino)-2-(2-hydroxyethoxy)-4,7-dimethyl-3,4-dihydro-2,7-naphthyridine-1,6(2H,7H)-dione] showed a Papp at 2 h, 1 μM in data set [1] of 18.7 ×10⁻⁶ cm/s. Moreover, the efflux ratio at 2 h, 1 μM in data set [2] was 2.5. Also, the IC50 in data set [4] is 3 nM.
In the same order, the values of `CSc1ccc(Nc2c3c(cc(=O)n2C)C(C)CN(OCCO)C3=O)c(F)c1` (centres unmarked) [Example 69, 8-((2-fluoro-4-(methylthio)phenyl)amino)-2-(2-hydroxyethoxy)-4,7-dimethyl-3,4-dihydro-2,7-naphthyridine-1,6(2H,7H)-dione] are 19.6 ×10⁻⁶ cm/s, 2.3 and 2 nM.
